Measured values as given in patent US8293231B2, “Methods and compositions for treating ischemia” (Blue Blood Biotech Corp., priority 2005, dated 2012).
Entries after “also recorded” stand apart in the source; their conditions may differ.

Legend:
[1] = system: PAI activity in conditioned media of HUVECs; assay: Plasminogen activator inhibitor (PAI) activity assay; assay type: cell-based, human; details: 12 h; 100 or 1000 ng/mL TMD23, 70 ng/mL PMA, 10 ng/mL VEGF
Description: (§1) HUVECs were seeded at 80% confluence on 100-mm dishes in M199 medium. After 24 h, cells were rinsed with serum-free M199 twice and incubated in serum-free M199 with various concentrations of TMD23, VEGF (10 ng/mL), or PMA (70 ng/mL) for 12 h. The conditioned medium containing […] secreted proteins was analyzed by gelatin- and casein-based zymographies. The digested area appeared clear on a blue background, indicating the location of matrix metalloproteinase (MMP) activity. To further verify MMP caseinolytic activity, the casein-containing gel was incubated with incubation buffer containing 10 mM EDTA, an inhibitor of MMPs, to observe disappearance of the clear band. Plasminogen activator inhibitor (PAI) activity was measured by titrating samples with increasing amounts of tissue-type plasminogen activator (t-PA) (Boehringer Ingelheim) into a fixed volume of endothelial-cell-conditioned media.
as §1, with “zymographies. Lee O H, et al., Identification of angiogenic properties of insulin-like growth factor II in in vitro angiogenesis models. Brit J. Cancer. 2000; 82:385-391.” for “zymographies.”, “media. Shi G Y., et al., Plasmin and the regulation of tissue-type plasminogen activator biosynthesis in human endothelial cells. […]” for “media.”

[2] = system: rat cornea; assay: Rat corneal angiogenesis assay; assay type: in vivo, Sprague Dawley rats
Description: (§2) The rat corneal assay was performed as described elsewhere. See eg., Kenyon B M., et al A model of angiogenesis in the mouse cornea. Invest Opthalmol Vis Sci. 1996; 37:1625-1632. Uniformly sized pellets of Hydron (polyhydroxyethylmethacrylate [poly HEMA]) (Sigma-Aldrich) containing either TMD23 or basic fibroblast growth factor (bFGF) and sucralfate (Sigma-Aldrich) were implanted into the rat corneal stroma adjacent to the temporal limbus. Briefly, sterile-saline suspensions containing 5-40 μg TMD23 or bFGF plus 10 mg sucralfate were made and speed vacuumed for 5 min; 12% Hydron in ethanol was added as described. The suspension was deposited onto an autoclaved, sterilized, 15-mm×15-mm nylon mesh. […] The eyes of Sprague Dawley rats (250-300 g) were topically anesthetized and a single pellet was inserted into a surgically created pocket in the corneal stroma. Corneas were examined daily with a dissecting microscope for up to 24 days for capillary growth. Maximal vessel length, clock h, and vascular areas of corneas of all rats were measured with a slit-lamp stereomicroscope.
as §2, with “elsewhere.” for “elsewhere. See eg., Kenyon B M., et al A model of angiogenesis in the mouse cornea. Invest Opthalmol Vis Sci. 1996; 37:1625-1632.”, “clock hour,” for “clock h,”

[3] = system: MMP-1, MMP-2, MMP-3, and MMP-9 in HUVEC conditioned medium; assay: Gelatin and casein zymographies; assay type: cell-based, human; details: gelatin zymography
Description: as §1
as §1, with “zymographies. Lee O H, et al., Identification of angiogenic properties of insulin-like growth factor II in in vitro angiogenesis models. Brit J. Cancer. 2000; 82:385-391.” for “zymographies.”, “media. Shi G Y., et al., Plasmin and the regulation of tissue-type plasminogen activator biosynthesis in human endothelial cells. […]” for “media.”

[4] = system: human umbilical vein endothelial cells (HUVECs); assay: Cell proliferation assay (BrdU incorporation); assay type: cell-based
Description: To evaluate the effect of TMD proteins on DNA synthesis in human umbilical vein endothelial cells (HUVECs), we performed a 5-bromo-2′-deoxyuridine (BrdU) incorporation assay with a commercial quantification kit (Roche Diagnostic GmbH) and manufacturer's protocol. Mitogenic effects induced by TMD proteins were also determined in the presence of polyclonal rabbit anti-TMD23 antibody (prepared by GlycoNex, Inc., Taiwan) that was purified by protein G-Sepharose column (Amersham Pharmacia Biotech AB).
To evaluate the effect of TMD proteins on DNA synthesis in human umbilical vein endothelial cells (HUVECs), a 5-bromo-2′-deoxyuridine (BrdU) incorporation assay were performed with a commercial quantification kit (Roche Diagnostic GmbH) and manufacturer's protocol. Mitogenic effects induced by TMD proteins were also determined in the presence of polyclonal rabbit anti-TMD23 antibody (prepared by GlycoNex, Inc., Taiwan) that was purified by protein G-Sepharose column (Amersham Pharmacia Biotech AB).

TMD23: Recombinant human thrombomodulin fragment, amino acids Ala242-Ser515 of SEQ ID NO: 2: six EGF-like structures (D2) plus Ser/Thr-rich domain D3
PAI activity in conditioned media of HUVECs [1]: decreased significantly | Day of maximal response ([2]; 90-ng dose): 10 days | Maximal response compared with bFGF ([2]; 90-ng dose, day 10): slightly greater than the response to 90 ng bFGF | Corneal neovascularization ([2]; implants in rat cornea): induced dose-dependent and time-dependent corneal neovascularization | Day of complete abrogation of angiogenic response ([2]; response regressed gradually after day 10): ≤ 24 days | Expression of MMP-2 and MMP-9 ([3]; 12 h): no significant effect | Expression of MMP-1/3 ([3]; MMP-3 confirmed by caseinolytic zymography): stimulated expression | Stimulation of HUVEC proliferation ([4]; 4.5 nM (150 ng/mL)): roughly two-fold | DNA synthesis in HUVECs ([4]; BrdU incorporation, FIG. 2A): stimulated DNA synthesis | Mitogenic activity / stimulation of HUVEC proliferation compared with TMD2 ([4]; FIG. 2A): higher mitogenic activity than TMD2; also recorded: more effective than TMD2
